In the supplement of paper PMC11061612:

How the values were obtained:
Test in all cases: Bliss excess, mean over the matrix (fraction); higher = more synergy
[1] = test system: CAL-54 (Kidney Carcinoma)
In short: (§1)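 Bliss excess equals the observed combination effect minus the expected value EA + EB − EA·EB, where EA and EB are the effects of each agent alone. Combination Emax is the second-highest inhibition within the matrix. Inhibition was scaled from CellTiter-Glo 2.0 luminescence, with 0 set by vehicle wells and 1 by blank wells, after 72 hours of two-drug dosing of cells plated in 1536-well plates.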

[2] = test system: CAPAN-1 (Pancreatic Carcinoma)
In short: as §1

[3] = test system: EN (Endometrial Carcinoma)
In short: as §1

[4] = test system: HARA (Squamous Cell Lung Carcinoma)
In short: as §1

HMV-II (Melanoma) = test system: HMV-II (Melanoma)
In short: as §1

[5] = test system: HO-1-u-1 (Oral Cavity Carcinoma)
In short: as §1

[6] = test system: K5 (Thyroid Gland Carcinoma)
In short: as §1

[7] = test system: MDA-MB-468 (Breast Carcinoma)
In short: as §1

Mewo (Melanoma) = test system: Mewo (Melanoma)
In short: as §1

NCI-H2461 (Mesothelioma) = test system: NCI-H2461 (Mesothelioma)
In short: as §1

NCI-H2795 (Mesothelioma) = test system: NCI-H2795 (Mesothelioma)
In short: as §1

[8] = test system: NCI-H69 (Small Cell Lung Carcinoma)
In short: as §1

[9] = test system: OC-314 (Ovarian Carcinoma)
In short: as §1

[10] = test system: PCI-30 (Head and Neck Carcinoma)
In short: as §1

[11] = test system: RPMI-6666 (Non-Cancerous)
In short: as §1

[12] = test system: RT-112 (Bladder Carcinoma)
In short: as §1

SH-4 (Melanoma) = test system: SH-4 (Melanoma)
In short: as §1

[13] = test system: SU-DHL-6 (B-Cell Non-Hodgkin's Lymphoma)
In short: as §1

[14] = test system: SW1116 (Colorectal Carcinoma)
In short: as §1

[15] = test system: SW1271 (Small Cell Lung Carcinoma)
In short: as §1

SMILES	Bliss excess [1]	Bliss excess [2]	Bliss excess [3]	Bliss excess [4]	Bliss excess (HMV-II (Melanoma))	Bliss excess [5]	Bliss excess [6]	Bliss excess [7]	Bliss excess (Mewo (Melanoma))	Bliss excess (NCI-H2461 (Mesothelioma))	Bliss excess (NCI-H2795 (Mesothelioma))	Bliss excess [8]	Bliss excess [9]	Bliss excess [10]	Bliss excess [11]	Bliss excess [12]	Bliss excess (SH-4 (Melanoma))	Bliss excess [13]	Bliss excess [14]	Bliss excess [15]
C=CCn1c(=O)c2cnc(Nc3ccc(N4CCN(C)CC4)cc3)nc2n1-c1cccc(C(C)(C)O)n1 [AZD1775] + Nc1ccn([C@@H]2O[C@H](CO)[C@@H](O)C2(F)F)c(=O)n1 [Gemcitabine] (first compound max 1 µM, partner max 0.3 µM)	-0.0031	-0.0588	-0.0552	0.0187	-0.0355	-0.0446	-0.0194	0.0073	-0.0623	-0.0446	-0.0549	-0.0754	0.0576	0.0252	-0.0197	0.148	-0.0092	0.0556	-0.0077	-0.0558
CN(CCO)CC[C@H](CSc1ccccc1)Nc1ccc(S(=O)(=O)NC(=O)c2ccc(N3CCC([C@@H](O)c4ccccc4-c4ccc(Cl)cc4)CC3)cc2)cc1S(=O)(=O)C(F)(F)F [AZD4320] + CC(=O)O[C@H]1C(=O)[C@@]2(C)[C@H]([C@H](OC(=O)c3ccccc3)[C@]3(O)C[C@H](OC(=O)[C@H](O)[C@@H](NC(=O)c4ccccc4)c4ccccc4)C(C)=C1C3(C)C)[C@]1(OC(C)=O)CO[C@@H]1C[C@@H]2O [Paclitaxel] (first compound max 1 µM, 7x7, partner max 3 µM)	-0.0202	0.0823	0.068	0.0253	0.101	0.254	0.0018	0.0898	0.0548	0.0571	0.0621	0.0089	0.0084	0.177	0.017	0.0111	0.0813	0.0083	-0.101	0.108
CN(CCO)CC[C@H](CSc1ccccc1)Nc1ccc(S(=O)(=O)NC(=O)c2ccc(N3CCC([C@@H](O)c4ccccc4-c4ccc(Cl)cc4)CC3)cc2)cc1S(=O)(=O)C(F)(F)F [AZD4320] + CS(=O)(=O)CCNCc1ccc(-c2ccc3ncnc(Nc4ccc(OCc5cccc(F)c5)c(Cl)c4)c3c2)o1 [Lapatinib] (first compound max 1 µM, 7x7, partner max 10 µM)	0.0171	-0.021	-0.0532	0.027	-0.0663	0.0591	0.0213	-0.0457	-0.0386	0.0115	0.0148	0.0363	0.0535	0.0067	-0.0208	0.0152	-0.0411	0.0749	0.0117	-0.0178
CN(CCO)CC[C@H](CSc1ccccc1)Nc1ccc(S(=O)(=O)NC(=O)c2ccc(N3CCC([C@@H](O)c4ccccc4-c4ccc(Cl)cc4)CC3)cc2)cc1S(=O)(=O)C(F)(F)F [AZD4320] + C[C@@H](Nc1cc(F)cc(F)c1)c1cc(C(=O)N(C)C)cc2c(=O)cc(N3CCOCC3)oc12 [AZD8186] (first compound max 1 µM, 7x7, partner max 3 µM)	0.0533	-0.0107	-0.0377	0.0233	-0.0397	-0.0242	-0.0505	0.0195	0.0471	-0.0052	0.0426	-0.0208	0.0075	-0.0503	0.0298	0.0735	-0.0042	0.0068	0.0353	-0.0447
CN(CCO)CC[C@H](CSc1ccccc1)Nc1ccc(S(=O)(=O)NC(=O)c2ccc(N3CCC([C@@H](O)c4ccccc4-c4ccc(Cl)cc4)CC3)cc2)cc1S(=O)(=O)C(F)(F)F [AZD4320] + Nc1ccn([C@@H]2O[C@H](CO)[C@@H](O)C2(F)F)c(=O)n1 [Gemcitabine] (first compound max 1 µM, 7x7, partner max 0.3 µM)	-0.0034	0.0166	-0.0382	-0.0498	-0.0109	0.0383	0.0121	-0.0034	0.0099	0.0285	-0.0094	-0.0064	0.0434	-0.0272	-0.0051	-0.0057	0.0224	-0.0131	-0.0292	0.0692
Cc1c2c(nn1C)CSCc1cc(n(C)n1)CSc1cc(c3ccccc3c1)OCCCc1c(C(=O)O)n(C)c3c-2c(Cl)ccc13 [AZD5991] + CC(=O)O[C@H]1C(=O)[C@@]2(C)[C@H]([C@H](OC(=O)c3ccccc3)[C@]3(O)C[C@H](OC(=O)[C@H](O)[C@@H](NC(=O)c4ccccc4)c4ccccc4)C(C)=C1C3(C)C)[C@]1(OC(C)=O)CO[C@@H]1C[C@@H]2O [Paclitaxel] (first compound max 1 µM, 7x7, partner max 3 µM)	-0.0639	-0.0006	0.149	-0.003	0.0547	0.214	-0.0361	-0.051	0.0103	-0.0417	0.044	-0.0504	-0.0078	0.115	-0.0139	0.0162	-0.0331	0.0125	-0.0379	-0.0228
Cc1c2c(nn1C)CSCc1cc(n(C)n1)CSc1cc(c3ccccc3c1)OCCCc1c(C(=O)O)n(C)c3c-2c(Cl)ccc13 [AZD5991] + CS(=O)(=O)CCNCc1ccc(-c2ccc3ncnc(Nc4ccc(OCc5cccc(F)c5)c(Cl)c4)c3c2)o1 [Lapatinib] (first compound max 1 µM, 7x7, partner max 10 µM)	0.0368	-0.0147	-0.0129	0.0632	-0.0587	0.0293	-0.0063	-0.0357	-0.013	-0.0273	-0.016	-0.0745	0.0453	0.0446	-0.1	0.0426	-0.01	0.0085	-0.0369	-0.0749
Cc1c2c(nn1C)CSCc1cc(n(C)n1)CSc1cc(c3ccccc3c1)OCCCc1c(C(=O)O)n(C)c3c-2c(Cl)ccc13 [AZD5991] + Nc1ccn([C@@H]2O[C@H](CO)[C@@H](O)C2(F)F)c(=O)n1 [Gemcitabine] (first compound max 1 µM, 7x7, partner max 0.3 µM)	–	-0.0092	-0.0535	-0.0107	0.0013	0.0217	-0.045	-0.0097	-0.0395	-0.0432	-0.0687	-0.0178	-0.0084	-0.0531	-0.0411	0.0012	-0.0246	0.0242	-0.0213	-0.0354
C[C@@H]1COCCN1c1cc(C2([S@](C)(=N)=O)CC2)nc(-c2ccnc3[nH]ccc23)n1 [AZD6738] + C1CC(C1)(C(=O)[O-])C(=O)[O-].N.N.[Pt+2] [Carboplatin] (first compound max 10 µM, 7x7, partner max 10 µM)	-0.0355	-0.0624	-0.0335	-0.0226	-0.0067	-0.074	-0.0728	-0.0511	-0.0192	-0.05	-0.0819	-0.032	-0.03	-0.0362	-0.0614	-0.0217	-0.057	-0.0174	-0.0483	-0.0547
C[C@@H]1COCCN1c1cc(C2([S@](C)(=N)=O)CC2)nc(-c2ccnc3[nH]ccc23)n1 [AZD6738] + Nc1ccn([C@@H]2O[C@H](CO)[C@@H](O)C2(F)F)c(=O)n1 [Gemcitabine] (first compound max 10 µM, 7x7, partner max 0.3 µM)	0.0372	-0.0254	0.0613	0.0343	-0.0112	0.061	0.034	0.0233	0.0475	-0.0436	-0.0533	0.035	0.115	0.0539	-0.034	0.147	-0.0029	0.118	0.0575	0.004
Cc1cc2ncnn2cc1Nc1ncc2c(n1)n(C1CCOCC1)c(=O)n2C [AZD7648] + COc1cc([C@@H]2c3cc4c(cc3[C@@H](O[C@@H]3O[C@@H]5CO[C@@H](C)O[C@H]5[C@H](O)[C@H]3O)[C@H]3COC(=O)[C@H]23)OCO4)cc(OC)c1O [Etoposide] (first compound max 10 µM, 7x7, partner max 10 µM)	0.0605	-0.0034	0.0565	0.105	0.0864	0.11	0.1	0.0376	0.0524	0.0136	-0.0093	0.0783	0.152	0.0768	0.0224	0.17	0.0744	0.0914	-0.0028	0.0441
C[C@@H](Nc1cc(F)cc(F)c1)c1cc(C(=O)N(C)C)cc2c(=O)cc(N3CCOCC3)oc12 [AZD8186] + C1CN(CCC1(C(=O)N[C@@H](CCO)C2=CC=C(C=C2)Cl)N)C3=NC=NC4=C3C=CN4 [AZD5363] (first compound max 10 µM, 7x7, partner max 10 µM)	-0.0774	-0.0755	0.0157	-0.0301	-0.0515	-0.073	-0.062	-0.0305	-0.001	-0.0449	-0.106	-0.0566	0.0624	-0.0443	-0.086	-0.0188	-0.0317	0.0024	-0.0429	-0.0388
C[C@@H](Nc1cc(F)cc(F)c1)c1cc(C(=O)N(C)C)cc2c(=O)cc(N3CCOCC3)oc12 [AZD8186] + CC(=O)c1c(C)c2cnc(Nc3ccc(N4CCNCC4)cn3)nc2n(C2CCCC2)c1=O [Palbociclib] (first compound max 10 µM, 7x7, partner max 10 µM)	0.0039	-0.0559	-0.0262	0.0281	0.0265	0.0138	-0.0142	-0.022	-0.0155	-0.0113	0.0582	0.0121	0.0774	0.0121	-0.0073	0.0396	-0.0303	0.0418	-0.0352	0.0035
